For test [1], the target named is T1, Porcine pancreatic elastase (Sus scrofa, UniProt P00772).
T1 construct: gene CELA1; commercial native enzyme from pancreas (Sigma-Aldrich); mature enzyme
Kind of test: N-Succinyl-Ala-Ala-Ala-p-nitroanilide hydrolysis, absorbance […] nm. The format is biochemical. The conditions noted are these: read-out: IC50 [μg/mL] / Elastase Inhibition (converted).

Test [2] addresses T2, Collagenase from Clostridium histolyticum.
T2 construct: gene colG; commercial native enzyme preparation (Sigma-Aldrich); mixture of ColG and ColH not resolved
The experiment in a line: FALGPA hydrolysis, absorbance […] nm. The test is classed as biochemical, Hathewaya histolytica. The settings on record: FALGPA 1 mM; Tricine 0.05 M pH 7.5, 0.4 M NaCl, 0.01 M CaCl2; 29 °C; 10 min preincubation; positive control.

Converted amounts (≈) assume the structure as drawn.

From PMC7464698, “Phenolic Composition and Skin-related Properties of the Aerial Parts Extract of Different Hemerocallis Cultivars” (Antioxidants, 2020) come the findings set out here.

T1 sequence (P00772 27-266): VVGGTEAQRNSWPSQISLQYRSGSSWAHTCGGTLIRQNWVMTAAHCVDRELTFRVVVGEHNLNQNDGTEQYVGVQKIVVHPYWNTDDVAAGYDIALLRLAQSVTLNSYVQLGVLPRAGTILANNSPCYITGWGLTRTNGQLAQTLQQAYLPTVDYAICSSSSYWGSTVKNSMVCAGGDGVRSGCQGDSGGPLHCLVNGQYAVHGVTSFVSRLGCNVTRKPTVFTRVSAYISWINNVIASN

As for `O=C(O[C@@H]1Cc2c(O)cc(O)cc2O[C@@H]1c1cc(O)c(O)c(O)c1)c1cc(O)c(O)c(O)c1` [EGCG], in test [1], the IC50 was 136 µM. Besides, the “IC50 [μg/mL] / Collagenase Inhibition” value in test [2] is on record as 34.9 ± 0.4 µg/mL (≈ 76.1 µM).
